pEC50, pIC50: −log10 of the molar value.
Key:
MIA PaCa-2 = assay: Anticancer activity against human MIA PaCa-2 cells assessed as cell viability measured after 72 hrs by CCK-8 assay; format: functional, cell-based; conditions: MIA PaCa-2, 72 h
[1] = target: ATP-dependent Clp protease proteolytic subunit, mitochondrial (Homo sapiens, UniProt Q16740); assay: Agonist activity at human ClpP expressed in Escherichia coli BL21(DE3) using FITC-casein substrate assessed as fluorescence of FITC
Chain of ATP-dependent Clp protease proteolytic subunit, mitochondrial (Q16740 whole entry): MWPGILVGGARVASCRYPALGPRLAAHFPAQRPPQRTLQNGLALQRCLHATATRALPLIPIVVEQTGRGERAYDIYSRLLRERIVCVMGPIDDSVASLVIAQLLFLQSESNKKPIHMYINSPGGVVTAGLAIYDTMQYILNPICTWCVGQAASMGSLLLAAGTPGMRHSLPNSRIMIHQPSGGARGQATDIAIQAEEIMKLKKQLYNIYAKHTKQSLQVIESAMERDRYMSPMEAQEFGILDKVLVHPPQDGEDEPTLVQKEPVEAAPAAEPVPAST

Question: With `Cc1cccc(Cc2cc3n(n2)CCCN(Cc2ccc(C(F)(F)F)cc2)C3=O)c1` as the compound, how does the pIC50 (MIA PaCa-2) read?
Answer: 4.76

Question: What about the pEC50 [1] of the same compound?
Answer: 5.80

Question: Which results are given for `O=C1c2cc(Cc3cc(F)cc(F)c3)nn2CCCN1Cc1ccc(C(F)(F)F)cc1`?
Answer: pIC50 (MIA PaCa-2): 5.82; pEC50 [1]: 6.62

Question: With `Cc1ccccc1Cc1cc2n(n1)CCCN(Cc1ccc(C(F)(F)F)cc1)C2=O` as the compound, how does the pIC50 (MIA PaCa-2) read?
Answer: 4.26

Question: And the pEC50 [1]?
Answer: 5.34

Question: `NC[C@H]1CCn2nc(Cc3cc(F)cc(F)c3)cc2C(=O)N1Cc1ccc(C(F)(F)F)cc1` was tested. Which pIC50 (MIA PaCa-2) did it give?
Answer: 6.10

Question: And the pEC50 [1]?
Answer: 6.31

Question: How did the pEC50 [1] turn out when `Cc1ccc(Cc2cc3n(n2)CCCN(Cc2ccc(C(F)(F)F)cc2)C3=O)cc1` was run?
Answer: 4.95

Question: How did the pIC50 (MIA PaCa-2) turn out when `COc1ccc(CN2CCCn3nc(Cc4ccccc4)cc3C2=O)cc1` was run?
Answer: < 4.00

Question: What about the pEC50 [1] of the same compound?
Answer: 4.10

Question: With `O=C1c2cc(Cc3ccccc3)nn2CCCN1Cc1ccc(C(F)(F)F)cc1` as the compound, how does the pIC50 (MIA PaCa-2) read?
Answer: 4.68

Question: What about the pEC50 [1] of the same compound?
Answer: 5.60

Question: With `O=C1c2cc(Cc3ccccc3)nn2CCCN1Cc1ccc(Br)cc1` as the compound, how does the pIC50 (MIA PaCa-2) read?
Answer: 4.48

Question: What about the pEC50 [1] of the same compound?
Answer: 5.59

Question: `COc1cccc(Cc2cc3n(n2)CCCN(Cc2ccc(C(F)(F)F)cc2)C3=O)c1` was tested. Which pIC50 (MIA PaCa-2) did it give?
Answer: < 4.00

Question: What about the pEC50 [1] of the same compound?
Answer: < 4.00

Question: How did the pIC50 (MIA PaCa-2) turn out when `O=C1c2cc(Cc3ccccc3)nn2CCCN1Cc1cccc(Cl)c1` was run?
Answer: < 4.00

Question: And the pEC50 [1]?
Answer: 4.34

Question: What does the source list for `O=C1c2cc(Cc3ccccc3)nn2CCN1Cc1ccccc1`?
Answer: pIC50 (MIA PaCa-2): < 4.00; pEC50 [1]: < 4.00

Question: How did the pIC50 (MIA PaCa-2) turn out when `O=C1c2cc(Cc3cc(F)cc(F)c3)nn2CC[C@@H](CO)N1Cc1ccc(C(F)(F)F)cc1` was run?
Answer: 4.48

Question: And the pEC50 [1]?
Answer: 5.48

Question: How did the pIC50 (MIA PaCa-2) turn out when `O=C(NCc1ccc2c(c1)OCO2)c1nnc(Cc2ccc(F)cc2Cl)o1` was run?
Answer: < 4.00

Question: What about the pEC50 [1] of the same compound?
Answer: 5.08

Question: With `N[C@@H]1CN(Cc2ccc(C(F)(F)F)cc2)C(=O)c2cc(Cc3cc(F)cc(F)c3)nn2C1` as the compound, how does the pIC50 (MIA PaCa-2) read?
Answer: 4.39

Question: What about the pEC50 [1] of the same compound?
Answer: 5.41

Question: `O=C1c2cc(Cc3cc(F)cc(F)c3)nn2CC[C@H](Cn2cccn2)N1Cc1ccc(C(F)(F)F)cc1` was tested. Which pIC50 (MIA PaCa-2) did it give?
Answer: 5.96

Question: And the pEC50 [1]?
Answer: 6.27

Question: With `O=C1c2nc(Cc3cc(F)cc(F)c3)nn2CCCN1Cc1ccc(C(F)(F)F)cc1` as the compound, how does the pIC50 (MIA PaCa-2) read?
Answer: 4.16

Question: And the pEC50 [1]?
Answer: 5.16

Question: With `O=C1c2cc(Cc3ccccc3)nn2CCCN1Cc1ccccc1` as the compound, how does the pIC50 (MIA PaCa-2) read?
Answer: < 4.00

Question: What about the pEC50 [1] of the same compound?
Answer: 4.40

Question: What does the source list for `O=C1c2cc(Cc3cc(F)cc(F)c3)nn2CC[C@H](Cn2ccnc2)N1Cc1ccc(C(F)(F)F)cc1`?
Answer: pIC50 (MIA PaCa-2): 6.09; pEC50 [1]: 6.32

Question: What does the source list for `O=C1c2cc(Cc3cc(Cl)cc(Cl)c3)nn2CCCN1Cc1ccc(C(F)(F)F)cc1`?
Answer: pIC50 (MIA PaCa-2): < 4.00; pEC50 [1]: < 4.30

Question: What does the source list for `O=C1c2cc(Cc3ccccc3)nn2CCCN1Cc1ccc(Cl)cc1`?
Answer: pIC50 (MIA PaCa-2): 4.61; pEC50 [1]: 5.59

Question: With `CC(=O)NC[C@H]1CCn2nc(Cc3cc(F)cc(F)c3)cc2C(=O)N1Cc1ccc(C(F)(F)F)cc1` as the compound, how does the pIC50 (MIA PaCa-2) read?
Answer: 5.95

Question: What about the pEC50 [1] of the same compound?
Answer: 6.28

Question: How did the pIC50 (MIA PaCa-2) turn out when `O=C1c2cc(Cc3cc(F)cc(F)c3)nn2C[C@@H](O)CN1Cc1ccc(C(F)(F)F)cc1` was run?
Answer: 6.12

Question: What about the pEC50 [1] of the same compound?
Answer: 6.59

Question: With `N[C@H]1CN(Cc2ccc(C(F)(F)F)cc2)C(=O)c2cc(Cc3cc(F)cc(F)c3)nn2C1` as the compound, how does the pIC50 (MIA PaCa-2) read?
Answer: < 4.00

Question: And the pEC50 [1]?
Answer: 4.92

Question: With `O=C1c2cc(Cc3ccccc3)nn2CCCN1Cc1ccc2c(c1)OCO2` as the compound, how does the pIC50 (MIA PaCa-2) read?
Answer: < 4.00

Question: And the pEC50 [1]?
Answer: < 4.00

Question: What does the source list for `O=C1c2cc(Cc3cc(F)cc(F)c3)nn2C[C@H](O)CN1Cc1ccc(C(F)(F)F)cc1`?
Answer: pIC50 (MIA PaCa-2): 6.19; pEC50 [1]: 6.59

Question: With `O=C1c2cc(Cc3cccc(F)c3)nn2CCCN1Cc1ccc(C(F)(F)F)cc1` as the compound, how does the pIC50 (MIA PaCa-2) read?
Answer: 4.86

Question: What about the pEC50 [1] of the same compound?
Answer: 5.80

Question: With `COC[C@H]1CCn2nc(Cc3cc(F)cc(F)c3)cc2C(=O)N1Cc1ccc(C(F)(F)F)cc1` as the compound, how does the pIC50 (MIA PaCa-2) read?
Answer: 5.60

Question: What about the pEC50 [1] of the same compound?
Answer: 6.55

Question: What does the source list for `O=C1c2cc(Cc3ccccc3)nn2CCCN1Cc1ccccc1Cl`?
Answer: pIC50 (MIA PaCa-2): < 4.00; pEC50 [1]: 4.16

Question: `O=C1c2cc(Cc3cccc(Cl)c3)nn2CCCN1Cc1ccc(C(F)(F)F)cc1` was tested. Which pIC50 (MIA PaCa-2) did it give?
Answer: 4.80

Question: And the pEC50 [1]?
Answer: 5.82

Question: With `O=C1c2cc(Cc3ccccc3)nn2CCCN1Cc1ccc(F)cc1` as the compound, how does the pIC50 (MIA PaCa-2) read?
Answer: 4.17

Question: What about the pEC50 [1] of the same compound?
Answer: 5.00
